One data set addresses T1, HHAT (Homo sapiens, UniProt Q5VTY9).
T1 construct: FLAG (C); His (C); made in house; host or cells: HEK293a cells stably overexpressing HHAT-FLAG-His
Briefly: Pilot HTS Acyl-cLIP screen of FDA-approved drugs, purified HHAT, stopped-assay conditions. It is filed as biochemical. The settings on record: compounds screened at 25 μM.

Another data set deals with SHH-Light2 cells. Briefly: Constitutive Renilla luciferase control for cellular viability in SHH-Light2 assay. Format: cell-based. As to the method: (§1) SHH-Light2 Signalling Assay
(§2) HEK293a SHH+ cells (120,000 cells/well) were plated in a 12-well cell culture treated plate (Nunc) in DMEM/FBS (1 mL/well) and cultured for 24 h. Cells were washed with PBS, followed by the addition of DMEM/FBS (1 mL) containing DMSO (0.2%) or varying inhibitor concentrations in DMSO (0.041-30 µM). SHH-Light2 cells (20,000 cells/well) were plated in a 96-well plate in DMEM/FCS (50 µL/well). After 24 h, conditioned medium (300 µL) was removed from each well of the HEK293a SHH+ cells, centrifuged (1,000 g, 10 min), and added to three wells of SHH-Light2 cells (100 µL/well, 150 µL final volume). SHH-Light2 cells were cultured for a further 48 h, and washed with PBS prior to analysis. Firefly and Renilla luciferase activity was recorded using the Dual-Luciferase reporter system (Promega Corporation, USA).
(§3) Passive lysis buffer (20 µL) was added to each well and cells incubated for 30 min at RT. The lysate (5 µL) was transferred to a white opaque 96-well plate (Corning, 3362). Luciferase Assay Reagent II (20 µL/well) was added and the luminescence immediately recorded using a SpectraMax i3x spectrophotometer (Molecular Devices LLC). Stop&Glo (1x) substrate in Stop&Glo buffer (20 µL/well) was added and the luminescence immediately recorded. […]

The subject of data set [1] is SHH acylation in HEK-293 SHH+ cells. Briefly: In-cell YnC15 tagging assay of SHH acylation. Format: cell-based, human. The following applies: inhibitors 20 µM, YnC15, AzTB ligation; for inhibition of SHH acylation (YnC15 tagging) by in-gel fluorescence: IGF; for inhibition of SHH acylation assessed by increased molecular weight in anti-SHH blotting: α-SHH western blot. As to the method:
In-Cell YnC15 Tagging Assay
HEK293a SHH+ cells (500,000 cells/well) were plated in a 6-well plate in DMEM/FBS (3 mL/well) and cultured for 24 h. Cells were treated with inhibitors in DMSO (20 µM), two RUSKI-201 (20 µM) blind-positive controls and two DMSO (7.5 µL) blind-negative controls.
After 1 h, YnC15 (3 µL, 20 mM in DMSO) was added and cells cultured for a further 6 h before washing with PBS. Cells were lysed in PBS with Triton X-100 (1%), SDS (0.1% (w/v)) and Complete EDTA-free protease inhibitor cocktail (Roche Diagnostics). Cells were removed from plates by scraping, and lysates centrifuged (13,000 g, 10 min, 4 °C). The protein concentration of the supernatant was estimated using the DC Protein Assay (Bio-Rad) and adjusted to 1 mg/mL with lysis buffer. AzTB (1 µL, 10 mM in DMSO), CuSO4 (2 µL, 50 mM in H2O), TCEP (2 µL, 50 mM in H2O) and TBTA (1 µL, 10 mM in DMSO) were combined, and this mixture (6 µL) added to the lysate (100 µL). Samples were shaken at RT for 1 h, then proteins precipitated by addition of methanol (200 µL), chloroform (50 µL) and water (100 µL) followed by centrifugation (13,000 g, 5 min, 4 °C). The upper aqueous layer was removed without disturbing the protein layer at the interphase, methanol (0.5 mL) was added, and the precipitated proteins isolated by centrifugation (13,000 g, 10 min, 4 °C). Protein pellets were […]
(§4) washed twice with methanol, briefly air-dried and re-dissolved in PBS containing SDS (0.2% (w/v)) and DTT (0.1 mM) using sonication to a final concentration of 1 mg/mL.
(§5) 10 µg of protein were separated on a 15% SDS-polyacrylamide gel. Fluorescence was recorded using a Typhoon imager (GE Healthcare; excitation laser: 532 nm, emission filter:
(§6) Proteins were transferred to a nitrocellulose membrane by wet transfer (100 V, 1 h), and membranes blocked with BSA (5% (w/v)) in TBS-T (50 mM TRIS, 150 mM NaCl, 0.1% Tween-20, pH 7.5) for 1 h at RT, followed by overnight incubation at 4°C with rabbit α-SHH (Santa Cruz Biotechnology; sc-9024; 1:200) in TBS-T with BSA (0.5% (w/v)) or mouse α-Tubulin (Santa Cruz Biotechnology; sc-8035; 1:200) in TBS-T with BSA (0.5% (w/v)). Membranes were washed with TBS-T (4 × 5 min) and incubated at RT for 1 h with HRP-conjugated Goat-α-mouse IgG (Advansta; 1:10,000) in TBS-T with BSA (0.5% (w/v)) or Goat-α-rabbit IgG (Advansta; 1:10,000) in TBS-T with BSA (0.5% (w/v)). Membranes were washed with TBS-T (4 × 5 min) and developed with Luminata Crescendo Western HRP substrate (Millipore) on a Fujifilm LAS-3000 imager. YnC15-labelled SHH band intensities were quantified using ImageJ 1.50i (National Institute of Health, USA).
HEK293a SHH+ cells (5,000 cells/well) were plated in a 96-well plate in DMEM/FBS […]
(50 µL/well) and cultured for 24 h. […]

Another data set relates to HEK-293 SHH+ cells. Put plainly: MTS viability assay. The following applies: 72 h, inhibitors 0.14-100 µM. Format: cell-based, human. The procedure:
as §4, §5
as §6, with “Membranes were washed with TBS-T (4 × 5 min) and developed with Luminata Crescendo Western HRP substrate (Millipore) on a Fujifilm LAS-3000 imager.” left out
HEK293a SHH+ cells (5,000 cells/well) were plated in a 96-well plate in DMEM/FBS (50 µL/well) and cultured for 24 h. […] The absorption at 490 nm was recorded using an EnVision Xcite 2104 and responses normalised to vehicle control and background corrected to Puromycin-treated samples.
Background: Tetrazolium assays rely on reduction of a dye to a coloured formazan, in cell work by metabolically active cells.

The test system of data set [2] is HH signalling in SHH-Light2 cells. Briefly: SHH-Light2 signalling assay (Firefly luciferase). It is filed as cell-based. The settings on record: inhibitors 0.041-30 µM. As to the method:
as §1, §2, §3

The conditions of data set [3]: cited from earlier work.
Data set [4] is described as follows: Detergent/BSA titration for polarised emission of Pal-SHH-FAM (fluorescence anisotropy). The following applies: titration with Pal-SHH-FAM; read-out: detergent concentration required for half-maximal polarised signal (EC50). On the technique in general: Polarisation of emitted light reports the rotation of a fluorescent probe.
Method: Fluorescence measurements were recorded on an EnVision Xcite 2104 (PerkinElmer).
FAM-labelled peptides were measured using a FITC FP D505fp mirror module, FITC FP 480 nm excitation filter (30 nm bandwidth), FITC FP P-pol 535 nm first emission filter (40 nm bandwidth), and FITC FP S-pol 535 nm second emission filter (40 nm bandwidth). Continuous reaction monitoring was conducted using measurement height = 9.52 mm, 8 flashes/well, PMT gain = 319, and G-factor = 1.09.
TAMRA-labelled peptides were measured using a BODIPY TMR FP D555fp mirror module, BODIPY TMR FP 531 nm excitation filter (25 nm bandwidth), BODIPY TMR FP P-pol 579 nm first emission filter (25 nm bandwidth), and BODIPY TMR FP S-pol 579 nm second emission filter (25 nm bandwidth). Continuous reaction monitoring was conducted using measurement height = 6.5 mm, 200 flashes/well, PMT gain = 255, and G-factor = 1.6.
Detergents (2 mM) or BSA (0.15 mM) were tested for generation of polarised fluorescence from Pal-SHH-FAM or SHH-FAM (0.1 µM) in 100 mM MES, 20 mM NaCl. Detergent and BSA titrations were performed using 2-fold serial dilutions.
The next data set concerns the target BSA. Also on record: method as in PMID 11964183. The settings on record: read-out: Kd of BSA for palmitic acid; cited from earlier work.

Structures can show the parent of a compound that is named as a salt. Where only a bound is given, the exact number is not on record here.

T1 sequence (Q5VTY9 whole entry): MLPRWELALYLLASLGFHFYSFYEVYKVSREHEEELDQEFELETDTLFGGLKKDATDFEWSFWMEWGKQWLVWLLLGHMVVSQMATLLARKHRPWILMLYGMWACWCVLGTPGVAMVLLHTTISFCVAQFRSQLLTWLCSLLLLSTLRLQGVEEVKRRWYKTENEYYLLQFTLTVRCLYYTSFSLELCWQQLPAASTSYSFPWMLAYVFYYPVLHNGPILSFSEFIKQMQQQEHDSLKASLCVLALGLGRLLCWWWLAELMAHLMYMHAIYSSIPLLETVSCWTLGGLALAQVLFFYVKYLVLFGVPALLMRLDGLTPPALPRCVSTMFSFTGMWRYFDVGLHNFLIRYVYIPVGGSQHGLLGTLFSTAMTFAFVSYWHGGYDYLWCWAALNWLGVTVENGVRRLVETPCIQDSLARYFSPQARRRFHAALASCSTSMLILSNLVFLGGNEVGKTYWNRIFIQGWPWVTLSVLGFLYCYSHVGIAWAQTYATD

The inhibition is the relative decrease from the control value, in per cent. Lower therefore signals a weak effect. In the case of `CC(C)C[C@H]1C(=O)N2CCC[C@H]2[C@]2(O)O[C@](NC(=O)[C@@H]3C=C4c5cccc6[nH]c(Br)c(c56)C[C@H]4N(C)C3)(C(C)C)C(=O)N12` [Bromocriptine Mesylate], on HHAT, the inhibition at 25 µM is > 80%. Further, the “cytotoxicity in SHH-Light2 signalling assay” value in the data set on SHH-Light2 cells is on record as “general cytotoxicity”. Further, the “inhibition of SHH acylation (YnC15 tagging) by in-gel fluorescence” value in data set [1] (listed as Bromocriptine) was “inhibition”; in data set [1] (listed as bromocriptine), “showed inhibition of SHH acylation”. For the same compound, the “inhibition of SHH acylation assessed by increased molecular weight in anti-SHH blotting” value in data set [1] is “did not show inhibition of SHH acylation”.
On to `CN(C)CCCN1c2ccccc2CCc2ccc(Cl)cc21` [Clomipramine·HCl], for which the “viability in MTS assay” value in the data set on HEK-293 SHH+ cells (listed as Clomipramine) is “cytotoxicity”; with HEK-293 SHH+ cells (listed as clomipramine) it was “decreased viability at high concentrations”. Further, the “concentration at which HH signalling is inhibited” value is 30 µM in data set [2] (listed as Clomipramine) and > 30 µM in data set [2] (listed as clomipramine). Also, the “inhibition of SHH acylation (YnC15 tagging) by in-gel fluorescence” value is “inhibition” in data set [1] (listed as Clomipramine) and “showed inhibition of SHH acylation” in data set [1] (listed as clomipramine). Further, the “inhibition of SHH acylation assessed by increased molecular weight in anti-SHH blotting” value in data set [1] is on record as “did not show inhibition of SHH acylation”.
Regarding `CCCCCCCCCCCCO[C@@H]1O[C@H](CO)[C@@H](O[C@H]2O[C@H](CO)[C@@H](O)[C@H](O)[C@H]2O)[C@H](O)[C@H]1O` [DDM, n-dodecyl β-D-maltoside], the “critical micelle concentration (CMC)” value in data set [3] is 170 µM. In data set [4], the EC50 is 150 µM.
By Kd is commonly meant the concentration at which binding is half-saturated. For `CCCCCCCCCCCCCCCC(=O)O` [palmitic acid], at BSA, the Kd was 0.104 µM.
As to Triton™ X-100 [TX-100], the “critical micelle concentration (CMC)” value in data set [3] is 200 µM. For the same compound, in data set [4], the EC50 is 180 µM.
